According to patent US7205382B2, “Peptides, the production and use thereof for binding immunoglobulins” (Fresenius Medical Care Affina GmbH, priority 2000, dated 2007):
Bridge positions count the residues as written; N and C are the ends. Square brackets hold non-standard residues; d marks the D form. Ends that are not written are not given here. cellulose = not defined here; βAla = NCCC(=O)O

Legend:
Assay type in all cases: binding
Design in all cases: key: No binding of immunoglobulin for the defined peptide variant, detection negative: 0; Binding of immunoglobulin for the defined peptide variant, detection positive: +
[1] = test system: serum albumin; assay: Cellulose-immobilized 13-mer peptide variants incubated with serum albumin (negative control), anti-human IgG-AP detection; conditions: blocking buffer without addition, 3 h room temperature
Procedure, shortened: (§1)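 Membrane-bound peptides, spaced by two β-alanines, are probed with 1 μg/ml IgG-Fc or 1:10,000 serum for 3 h at room temperature; blocking buffer alone acts as control. Detection uses anti-human IgG-AP (1.2 μg/ml) and NBT/BCIP.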

[2] = test system: immunoglobulins in human plasma; assay: Cellulose-immobilized 13-mer peptide variants incubated with human plasma, anti-human IgG-AP detection; conditions: human plasma as sample, diluted 1:10,000 in blocking buffer, 3 h room temperature
Procedure, shortened: as §1

[3] = test system: human IgG-Fc; assay: Cellulose-immobilized 13-mer peptide variants incubated with human IgG-Fc, anti-human IgG-AP detection; conditions: IgG-Fc 1 μg/ml in blocking buffer, 3 h room temperature
Procedure, shortened: as §1

Result for incubation with serum albumin (immunoglobulin binding detection) [1] | Result for incubation with human plasma (immunoglobulin binding detection) [2] | Result for incubation with human IgG-Fc (immunoglobulin binding detection) [3] | Substance
0 | 0 | 0 | 04C: cellulose-bound 13-mer variant DCACHLGELVWCT-(βA)(βA) (DCACHLGELVWCT-{βAla-βAla-cellulose}; disulfide (positions not given here); not fully specified (bridges); printed as DCACHLGELVWCT-(βA)(βA); reading uncertain)
0 | 0 | 0 | 07L: cellulose-bound 13-mer variant DCAWHLLELVWCT-(βA)(βA) (DCAWHLLELVWCT-{βAla-βAla-cellulose}; disulfide 2-12 (inferred); not fully specified (N-terminus); printed as DCAWHLLELVWCT-(βA)(βA); reading uncertain)
0 | + | + | 06R: cellulose-bound 13-mer variant DCAWHRGELVWCT-(βA)(βA) (DCAWHRGELVWCT-{βAla-βAla-cellulose}; disulfide 2-12 (inferred); not fully specified (N-terminus); printed as DCAWHRGELVWCT-(βA)(βA); reading uncertain)
0 | 0 | 0 | 11L: cellulose-bound 13-mer variant DCAWHLGELVLCT-(βA)(βA)
0 | + | + | 08K: cellulose-bound 13-mer variant DCAWHLGKLVWCT-(βA)(βA) (DCAWHLGKLVWCT-{βAla-βAla-cellulose}; disulfide 2-12 (inferred); not fully specified (N-terminus); printed as DCAWHLGKLVWCT-(βA)(βA); reading uncertain)
0 | 0 | 0 | 05S: cellulose-bound 13-mer variant DCAWSLGELVWCT-(βA)(βA) (disulfide 2-12 (inferred); not fully specified (N-terminus, C-terminus); printed as DCAWSLGELVWCT-(βA)(βA); also: cellulose-bound)
0 | + | + | 04R: cellulose-bound 13-mer variant DCARHLGELVWCT-(βA)(βA) (disulfide 2-12 (inferred); not fully specified (N-terminus, C-terminus); printed as DCARHLGELVWCT-(βA)(βA); also: cellulose-bound)
0 | 0 | 0 | 02I: cellulose-bound 13-mer variant DIAWHLGELVWCT-(βA)(βA) (DIAWHLGELVWCT[βAla][βAla]; not fully specified; printed as DIAWHLGELVWCT-(βA)(βA); also: cellulose-bound)
0 | 0 | + | 01Q: cellulose-bound 13-mer variant QCAWHLGELVWCT-(βA)(βA) (QCAWHLGELVWCT-{βAla-βAla-cellulose}; disulfide 2-12 (inferred); reading uncertain; also: printed as QCAWHLGELVWCT-(βA)(βA))
0 | 0 | 0 | 07T: cellulose-bound 13-mer variant DCAWHLTELVWCT-(βA)(βA) (DCAWHLTELVWCT-{βAla-βAla-cellulose}; disulfide 2-12 (inferred); not fully specified (N-terminus); printed as DCAWHLTELVWCT-(βA)(βA); reading uncertain)

More lines, now with the values behind:

Substance | Result for incubation with serum albumin (immunoglobulin binding detection) [1] | Result for incubation with human plasma (immunoglobulin binding detection) [2] | Result for incubation with human IgG-Fc (immunoglobulin binding detection) [3]
12E: cellulose-bound 13-mer variant DCAWHLGELVWET-(βA)(βA) (DCAWHLGELVWET-{βAla-βAla-cellulose}; not fully specified; printed as DCAWHLGELVWET-(βA)(βA); reading uncertain) | 0 | 0 | 0
03S: cellulose-bound 13-mer variant DCSWHLGELVWCT-(βA)(βA) (DCSWHLGELVWCT-{βAla-βAla-cellulose}; disulfide 2-12 (inferred); reading uncertain; also: printed as DCSWHLGELVWCT-(βA)(βA)) | 0 | + | +
07D: cellulose-bound 13-mer variant DCAWHLDELVWCT-(βA)(βA) (DCAWHLDELVWCT-{βAla-βAla-cellulose}; disulfide 2-12 (inferred); not fully specified (N-terminus); printed as DCAWHLDELVWCT-(βA)(βA); reading uncertain) | 0 | + | +
02L: cellulose-bound 13-mer variant DLAWHLGELVWCT-(βA)(βA) (DLAWHLGELVWCT[βAla][βAla]; not fully specified; printed as DLAWHLGELVWCT-(βA)(βA); also: cellulose-bound) | 0 | 0 | 0
01G: cellulose-bound 13-mer variant GCAWHLGELVWCT-(βA)(βA) (GCAWHLGELVWCT-{βAla-βAla-cellulose}; disulfide 2-12 (inferred); reading uncertain; also: printed as GCAWHLGELVWCT-(βA)(βA)) | 0 | + | +
10D: cellulose-bound 13-mer variant DCAWHLGELDWCT-(βA)(βA) (DCAWHLGELDWCT-{βAla-βAla-cellulose}; disulfide 2-12 (inferred); reading uncertain; also: printed as DCAWHLGELDWCT-(βA)(βA)) | 0 | 0 | 0
03H: cellulose-bound 13-mer variant DCHWHLGELVWCT-(βA)(βA) (DCHWHLGELVWCT-{βAla-βAla-cellulose}; disulfide 2-12 (inferred); reading uncertain; also: printed as DCHWHLGELVWCT-(βA)(βA)) | 0 | 0 | 0
10I: cellulose-bound 13-mer variant DCAWHLGELIWCT-(βA)(βA) (DCAWHLGELIWCT-{βAla-βAla-cellulose}; disulfide 2-12 (inferred); reading uncertain; also: printed as DCAWHLGELIWCT-(βA)(βA)) | 0 | 0 | 0
08C: cellulose-bound 13-mer variant DCAWHLGCLVWCT-(βA)(βA) (DCAWHLGCLVWCT-{βAla-βAla-cellulose}; not fully specified (N-terminus); printed as DCAWHLGCLVWCT-(βA)(βA); cysteine pairing not given here; reading uncertain) | 0 | 0 | 0
07A: cellulose-bound 13-mer variant DCAWHLAELVWCT-(βA)(βA) (DCAWHLAELVWCT-{βAla-βAla-cellulose}; disulfide 2-12 (inferred); not fully specified (N-terminus); printed as DCAWHLAELVWCT-(βA)(βA); reading uncertain) | 0 | 0 | 0
10L: cellulose-bound 13-mer variant DCAWHLGELLWCT-(βA)(βA) (DCAWHLGELLWCT-{βAla-βAla-cellulose}; disulfide 2-12 (inferred); reading uncertain; also: printed as DCAWHLGELLWCT-(βA)(βA)) | 0 | 0 | 0
